Measured values published in article PMC5218480 (PLoS ONE, 2017).

Tested on: MV-4-11 cells
Assay: Gene expression microarray analysis (Affymetrix PrimeView) and GSEA
Type: cell-based, human
Set-up: RFU PODN (11730768_x_at) / Fold change /veh PODN (11730768_x_at) / RFU LINC00158 (11744669_a_at) / Fold change /veh LINC00158 (11744669_a_at) / RFU DUSP10 (11751237_a_at) / Fold change /veh DUSP10 (11751237_a_at) / RFU ID3 (11757404_x_at) / Fold change /veh ID3 (11757404_x_at) / RFU PLEKHG5 (11737974_s_at) / Fold change /veh PLEKHG5 (11737974_s_at) / RFU LRRC4B (11730491_at) / Fold change /veh LRRC4B (11730491_at) / RFU GIMAP4 (11747438_a_at) / Fold change /veh GIMAP4 (11747438_a_at) / RFU KRT8 (11758183_x_at) / Fold change /veh KRT8 (11758183_x_at) / RFU CNN1 (11734310_a_at) / Fold change /veh CNN1 (11734310_a_at) / RFU VPS37D (11726825_at) / Fold change /veh VPS37D (11726825_at) / RFU C10orf10 (11716522_x_at) / Fold change /veh C10orf10 (11716522_x_at) / RFU KIR2DL2 /// KIR2DL4 /// KIR2DL5A /// KIR2DL5B /// KIR2DS1 /// KIR2DS2 /// KIR2DS3 /// KIR2DS4 /// KIR3DL3 /// KIR3DL3 /// KIR3DS1 (11738374_at) / Fold change /veh KIR2DL2 /// KIR2DL4 /// KIR2DL5A /// KIR2DL5B /// KIR2DS1 /// KIR2DS2 /// KIR2DS3 /// KIR2DS4 /// KIR3DL3 /// KIR3DL3 /// KIR3DS1 (11738374_at) / RFU C1QL1 (11718748_at) / Fold change /veh C1QL1 (11718748_at) / RFU TMPRSS4 (11747572_a_at) / Fold change /veh TMPRSS4 (11747572_a_at) / RFU HAMP (11756126_x_at) / Fold change /veh HAMP (11756126_x_at) / RFU RNFT2 (11725882_a_at) / Fold change /veh RNFT2 (11725882_a_at) / RFU NR4A2 (11747474_a_at) / Fold change /veh NR4A2 (11747474_a_at) / RFU ABCC12 (11746883_a_at) / Fold change /veh ABCC12 (11746883_a_at) / RFU TMEM136 (11760407_x_at) / Fold change /veh TMEM136 (11760407_x_at) / RFU CLDN22 /// WWC2 (11732394_at) / Fold change /veh CLDN22 /// WWC2 (11732394_at) / RFU HLA-DPB1 (11760878_x_at) / Fold change /veh HLA-DPB1 (11760878_x_at) / RFU SPINT1 (11716480_a_at) / Fold change /veh SPINT1 (11716480_a_at) / RFU GAP43 (11754022_s_at) / Fold change /veh GAP43 (11754022_s_at) / RFU A4GNT (11735810_at) / Fold change /veh A4GNT (11735810_at) / RFU PRB3 (11715151_x_at) / Fold change /veh PRB3 (11715151_x_at) / RFU TUBB4B (11761932_at) / Fold change /veh TUBB4B (11761932_at) / RFU CAPN14 (11732068_a_at) / Fold change /veh CAPN14 (11732068_a_at) / RFU TMCC2 (11721928_a_at) / Fold change /veh TMCC2 (11721928_a_at) / RFU IRGQ (11745062_a_at) / Fold change /veh IRGQ (11745062_a_at) / RFU FAM174B (11720279_a_at) / Fold change /veh FAM174B (11720279_a_at) / RFU TMPRSS4 (11748680_a_at) / Fold change /veh TMPRSS4 (11748680_a_at) / RFU FAM212B (11763350_a_at) / Fold change /veh FAM212B (11763350_a_at) / RFU PLEKHG5 (11743358_a_at) / Fold change /veh PLEKHG5 (11743358_a_at) / RFU ZSCAN30 (11745921_a_at) / Fold change /veh ZSCAN30 (11745921_a_at) / RFU CMKLR1 (11741424_a_at) / Fold change /veh CMKLR1 (11741424_a_at) / RFU LOC101060620 /// MAPK8IP1 (11723275_at) / Fold change /veh LOC101060620 /// MAPK8IP1 (11723275_at) / RFU SPTSSB (11747773_x_at) / Fold change /veh SPTSSB (11747773_x_at) / RFU PRSS12 (11739890_at) / Fold change /veh PRSS12 (11739890_at) / RFU BIN1 (11741810_x_at) / Fold change /veh BIN1 (11741810_x_at) / RFU WNT11 (11732464_a_at) / Fold change /veh WNT11 (11732464_a_at) / RFU C10orf10 (11716521_a_at) / Fold change /veh C10orf10 (11716521_a_at) / RFU C5orf56 (11738089_at) / Fold change /veh C5orf56 (11738089_at) / RFU CYB561 (11721691_x_at) / Fold change /veh CYB561 (11721691_x_at) / RFU ANKRD19P (11752326_a_at) / Fold change /veh ANKRD19P (11752326_a_at) / RFU OR2T12 /// OR2T33 /// OR2T8 (11738714_s_at) / Fold change /veh OR2T12 /// OR2T33 /// OR2T8 (11738714_s_at) / RFU VCAN (11748164_a_at) / Fold change /veh VCAN (11748164_a_at) / RFU JSRP1 (11732532_at) / Fold change /veh JSRP1 (11732532_at) / RFU KRTAP10-11 (11738290_x_at) / Fold change /veh KRTAP10-11 (11738290_x_at) / RFU MYO3A (11730013_a_at) / Fold change /veh MYO3A (11730013_a_at) / RFU EBF3 (11725865_a_at) / Fold change /veh EBF3 (11725865_a_at) / RFU CAMK2N1 (11719241_x_at) / Fold change /veh CAMK2N1 (11719241_x_at) / RFU C5orf56 (11738088_a_at) / Fold change /veh C5orf56 (11738088_a_at) / RFU OLFML3 (11715873_a_at) / Fold change /veh OLFML3 (11715873_a_at) / RFU LOC100653217 /// NTM (11731650_a_at) / Fold change /veh LOC100653217 /// NTM (11731650_a_at) / RFU MAPK11 (11762145_a_at) / Fold change /veh MAPK11 (11762145_a_at) / RFU FIZ1 (11724087_x_at) / Fold change /veh FIZ1 (11724087_x_at) / RFU OASL (11726364_x_at) / Fold change /veh OASL (11726364_x_at) / RFU SOX15 (11748057_x_at) / Fold change /veh SOX15 (11748057_x_at) / RFU CD79A (11719716_a_at) / Fold change /veh CD79A (11719716_a_at) / RFU HIST1H1D (11736915_at) / Fold change /veh HIST1H1D (11736915_at) / RFU CASKIN2 (11723855_a_at) / Fold change /veh CASKIN2 (11723855_a_at) / RFU LOC730098 (11760151_x_at) / Fold change /veh LOC730098 (11760151_x_at) / RFU OR4N2 (11742367_at) / Fold change /veh OR4N2 (11742367_at) / RFU PRRT2 (11749266_a_at) / Fold change /veh PRRT2 (11749266_a_at) / RFU SNX32 (11753110_a_at) / Fold change /veh SNX32 (11753110_a_at) / RFU CDHR5 (11726645_a_at) / Fold change /veh CDHR5 (11726645_a_at) / RFU RCAN1 (11760418_a_at) / Fold change /veh RCAN1 (11760418_a_at) / RFU FAM167A (11723789_a_at) / Fold change /veh FAM167A (11723789_a_at) / RFU FAM26E (11764081_at) / Fold change /veh FAM26E (11764081_at) / RFU ISYNA1 (11749810_s_at) / Fold change /veh ISYNA1 (11749810_s_at) / RFU ACY1 (11761880_at) / Fold change /veh ACY1 (11761880_at) / RFU 11764098_at / Fold change /veh 11764098_at / RFU SAMD14 (11745864_x_at) / Fold change /veh SAMD14 (11745864_x_at) / RFU NPB (11741838_a_at) / Fold change /veh NPB (11741838_a_at) / RFU TMPRSS6 (11731388_a_at) / Fold change /veh TMPRSS6 (11731388_a_at) / RFU KRTAP10-2 (11738614_at) / Fold change /veh KRTAP10-2 (11738614_at) / RFU ARHGAP8 /// PRR5-ARHGAP8 (11727945_x_at) / Fold change /veh ARHGAP8 /// PRR5-ARHGAP8 (11727945_x_at) / RFU KRTAP5-7 /// NADSYN1 (11734609_at) / Fold change /veh KRTAP5-7 /// NADSYN1 (11734609_at) / RFU RASL12 (11751679_a_at) / Fold change /veh RASL12 (11751679_a_at) / RFU CDKN2B (11736163_a_at) / Fold change /veh CDKN2B (11736163_a_at) / RFU PRF1 (11729649_at) / Fold change /veh PRF1 (11729649_at) / RFU, ZNF638 /// ZNF638-IT1 / Fold change vs veh, ZNF638 /// ZNF638-IT1 / RFU, PANK3 / Fold change vs veh, PANK3 / RFU, SH3YL1 / Fold change vs veh, SH3YL1 / RFU, ZEB2 / Fold change vs veh, ZEB2 / RFU, NRIP1 / Fold change vs veh, NRIP1 / RFU, PTTG1IP / Fold change vs veh, PTTG1IP / RFU, CAPN2 / Fold change vs veh, CAPN2 / RFU, MED14 / Fold change vs veh, MED14 / RFU, SNORA58 / Fold change vs veh, SNORA58 / RFU, C1orf63 / Fold change vs veh, C1orf63 / RFU, LRRFIP1 / Fold change vs veh, LRRFIP1 / RFU, NDUFAF7 / Fold change vs veh, NDUFAF7 / RFU, SLC12A2 / Fold change vs veh, SLC12A2 / RFU, IBTK / Fold change vs veh, IBTK / RFU, ESF1 / Fold change vs veh, ESF1 / Fold change vs veh, TMEM50B / RFU, TAOK1 / Fold change vs veh, TAOK1 / RFU, ACBD3 / Fold change vs veh, ACBD3 / RFU, TMA16 / Fold change vs veh, TMA16 / RFU, RWDD3 / Fold change vs veh, RWDD3 / RFU, BCAT1 / Fold change vs veh, BCAT1 / RFU, EDEM3 / Fold change vs veh, EDEM3 / RFU, TMEM33 / Fold change vs veh, TMEM33 / RFU, WDR75 / Fold change vs veh, WDR75 / RFU, AHCTF1 / Fold change vs veh, AHCTF1 / RFU, TFRC / Fold change vs veh, TFRC / RFU, ZDHHC17 / Fold change vs veh, ZDHHC17 / RFU, NOM1 / Fold change vs veh, NOM1 / RFU, ARL8B / Fold change vs veh, ARL8B / RFU, ZBTB11 / Fold change vs veh, ZBTB11 / RFU, TAMM41 / Fold change vs veh, TAMM41 / RFU, KIAA1704 /// LOC100996395 / Fold change vs veh, KIAA1704 /// LOC100996395 / RFU, ING1 / Fold change vs veh, ING1 / RFU, TRMT61B / Fold change vs veh, TRMT61B / RFU, FUBP3 / Fold change vs veh, FUBP3 / RFU, TP53 / Fold change vs veh, TP53 / RFU, TNKS2 / Fold change vs veh, TNKS2 / RFU, ZFP14 / Fold change vs veh, ZFP14 / RFU, ACTR2 / Fold change vs veh, ACTR2 / RFU, PPP3R1 / Fold change vs veh, PPP3R1 / RFU, PIK3R1 / Fold change vs veh, PIK3R1 / RFU, HNRNPA1 / Fold change vs veh, HNRNPA1 / RFU, RNF170 / Fold change vs veh, RNF170 / RFU, ZNF28 / Fold change vs veh, ZNF28 / RFU, RNGTT / Fold change vs veh, RNGTT / RFU, OGT / Fold change vs veh, OGT / RFU, BRD1 / Fold change vs veh, BRD1 / RFU, MARS / Fold change vs veh, MARS / RFU, ZNF655 / Fold change vs veh, ZNF655 / RFU, FAHD1 / Fold change vs veh, FAHD1 / RFU, BDP1 / Fold change vs veh, BDP1 / RFU, LRRCC1 / Fold change vs veh, LRRCC1 / RFU, ARID1A / Fold change vs veh, ARID1A / RFU, ZNF146 / Fold change vs veh, ZNF146 / RFU, ZNF330 / Fold change vs veh, ZNF330 / RFU, GPN3 / Fold change vs veh, GPN3 / RFU, C9orf123 / Fold change vs veh, C9orf123 / RFU, N4BP2L2 / Fold change vs veh, N4BP2L2 / RFU, ARFIP1 / Fold change vs veh, ARFIP1 / RFU, FAM179B / Fold change vs veh, FAM179B / RFU, BCL10 / Fold change vs veh, BCL10 / RFU, UHRF1BP1L / Fold change vs veh, UHRF1BP1L / RFU, BET1 / Fold change vs veh, BET1 / RFU, CNOT2 / Fold change vs veh, CNOT2 / RFU, ZNF268 / Fold change vs veh, ZNF268 / Fold change vs veh, ZNF507 / RFU, DGCR2 / Fold change vs veh, DGCR2 / RFU, WDSUB1 / Fold change vs veh, WDSUB1 / Fold change vs veh, HSP90B1 /// MIR3652 / RFU, ADSS / Fold change vs veh, ADSS / RFU, GK / Fold change vs veh, GK / RFU, ZNF148 / Fold change vs veh, ZNF148 / RFU, TAF9 / Fold change vs veh, TAF9 / RFU, SLC1A5 / Fold change vs veh, SLC1A5 / RFU, SLMO2 / Fold change vs veh, SLMO2 / RFU, ABCC4 / Fold change vs veh, ABCC4 / RFU, LOC101060439 /// RAP1B / Fold change vs veh, LOC101060439 /// RAP1B / RFU, RFX7 / Fold change vs veh, RFX7 / RFU, GTPBP10 / Fold change vs veh, GTPBP10 / RFU, CNEP1R1 / Fold change vs veh, CNEP1R1 / RFU, BIVM-ERCC5 /// ERCC5 / Fold change vs veh, BIVM-ERCC5 /// ERCC5 / RFU, ILF3 / Fold change vs veh, ILF3 / RFU 11762660_at / Fold change /veh 11762660_at / RFU VCAN (11757783_s_at) / Fold change /veh VCAN (11757783_s_at) / RFU DDX43 (11728927_at) / Fold change /veh DDX43 (11728927_at) / RFU KRT8 (11758188_x_at) / Fold change /veh KRT8 (11758188_x_at) / RFU NKD1 (11759106_at) / Fold change /veh NKD1 (11759106_at) / RFU SRD5A1 (11742802_a_at) / Fold change /veh SRD5A1 (11742802_a_at) / RFU TPSAB1 /// TPSB2 (11721975_s_at) / Fold change /veh TPSAB1 /// TPSB2 (11721975_s_at) / RFU GSTM3 (11746129_a_at) / Fold change /veh GSTM3 (11746129_a_at) / RFU IL23R (11737362_x_at) / Fold change /veh IL23R (11737362_x_at) / RFU TMEM51 (11727254_a_at) / Fold change /veh TMEM51 (11727254_a_at) / RFU PIWIL2 (11732686_x_at) / Fold change /veh PIWIL2 (11732686_x_at) / RFU ORM1 (11744905_x_at) / Fold change /veh ORM1 (11744905_x_at) / RFU CCDC152 (11743942_at) / Fold change /veh CCDC152 (11743942_at) / RFU ECM1 (11717891_a_at) / Fold change /veh ECM1 (11717891_a_at) / RFU IL23R (11748794_a_at) / Fold change /veh IL23R (11748794_a_at) / RFU TNFAIP8L3 (11732012_x_at) / Fold change /veh TNFAIP8L3 (11732012_x_at) / RFU MBOAT4 (11741988_at) / Fold change /veh MBOAT4 (11741988_at) / RFU 11764193_at / Fold change /veh 11764193_at / RFU TMEM53 (11763286_at) / Fold change /veh TMEM53 (11763286_at) / RFU MAGEB2 (11727129_at) / Fold change /veh MAGEB2 (11727129_at) / RFU TMEM200A (11744735_a_at) / Fold change /veh TMEM200A (11744735_a_at) / RFU CCDC152 (11751479_a_at) / Fold change /veh CCDC152 (11751479_a_at) / RFU FAM211A (11726209_a_at) / Fold change /veh FAM211A (11726209_a_at) / RFU RGS16 (11746705_a_at) / Fold change /veh RGS16 (11746705_a_at) / RFU VCAN (11755009_s_at) / Fold change /veh VCAN (11755009_s_at) / RFU RHOB (11743442_s_at) / Fold change /veh RHOB (11743442_s_at) / RFU RGS16 (11720943_a_at) / Fold change /veh RGS16 (11720943_a_at) / RFU RGS16 (11720944_at) / Fold change /veh RGS16 (11720944_at) / RFU, VPS4B / Fold change vs veh, VPS4B / RFU, CREB1 / Fold change vs veh, CREB1 / RFU, DNAJC13 / Fold change vs veh, DNAJC13 / RFU, GNAQ / Fold change vs veh, GNAQ / RFU, CDK5R1 / Fold change vs veh, CDK5R1 / RFU, ZRANB3 / Fold change vs veh, ZRANB3 / RFU, CUL4A / Fold change vs veh, CUL4A / RFU, CCNY / Fold change vs veh, CCNY / RFU, UFL1 / Fold change vs veh, UFL1 / RFU, COG3 / Fold change vs veh, COG3 / RFU, DIAPH2 / Fold change vs veh, DIAPH2 / RFU, SKA2 / Fold change vs veh, SKA2 / RFU, AFF3 / Fold change vs veh, AFF3 / RFU, LMF1 / Fold change vs veh, LMF1 / RFU, IPO11 / Fold change vs veh, IPO11 / RFU, DFFB / Fold change vs veh, DFFB / RFU, FOXP1 / Fold change vs veh, FOXP1 / RFU, CARD8 / Fold change vs veh, CARD8 / RFU, STRN3 / Fold change vs veh, STRN3 / RFU, ADK / Fold change vs veh, ADK / RFU, RASSF2 / Fold change vs veh, RASSF2 / RFU, WIPF1 / Fold change vs veh, WIPF1 / RFU, LARP1B / Fold change vs veh, LARP1B / RFU, RASA1 / Fold change vs veh, RASA1 / RFU, RB1 / Fold change vs veh, RB1 / RFU, PPFIA1 / Fold change vs veh, PPFIA1 / RFU, MAT2A / Fold change vs veh, MAT2A / RFU, CCT5 / Fold change vs veh, CCT5 / RFU, WDR92 / Fold change vs veh, WDR92 / RFU, CUX1 / Fold change vs veh, CUX1 / RFU, TTC7A / Fold change vs veh, TTC7A / RFU, TMEM135 / Fold change vs veh, TMEM135 / RFU, DEPTOR / Fold change vs veh, DEPTOR / RFU, CPM / Fold change vs veh, CPM / RFU, DNAJB6 / Fold change vs veh, DNAJB6 / RFU, CACNA2D3 / Fold change vs veh, CACNA2D3 / RFU, DTX4 / Fold change vs veh, DTX4 / RFU, TFCP2 / Fold change vs veh, TFCP2 / RFU, GMCL1 /// GMCL1P1 / Fold change vs veh, GMCL1 /// GMCL1P1 / RFU, AEBP2 / Fold change vs veh, AEBP2 / RFU, SNHG1 /// SNORD22 /// SNORD25 /// SNORD26 /// SNORD27 /// SNORD28 /// SNORD29 /// SNORD31 / Fold change vs veh, SNHG1 /// SNORD22 /// SNORD25 /// SNORD26 /// SNORD27 /// SNORD28 /// SNORD29 /// SNORD31 / Fold change (Aza/veh), C12orf56 (ProbeSet 11735607_a_at) / Fold change (ACY-1035/veh), C12orf56 (ProbeSet 11735607_a_at) / Fold change (Aza/veh), FGFR1OP (ProbeSet 11751329_s_at) / Fold change (ACY-1035/veh), FGFR1OP (ProbeSet 11751329_s_at) / Fold change (Aza/veh), VPS36 (ProbeSet 11739960_a_at) / Fold change (ACY-1035/veh), VPS36 (ProbeSet 11739960_a_at) / RFU SYPL1 (11715823_x_at) / Fold change /veh SYPL1 (11715823_x_at) / RFU IGFBP7 (11715501_s_at) / Fold change /veh IGFBP7 (11715501_s_at) / RFU REEP3 (11722064_at) / Fold change /veh REEP3 (11722064_at) / RFU IGLL1 (11728026_x_at) / Fold change /veh IGLL1 (11728026_x_at): dose or concentration left out as unconfirmed
Settings: MV-4-11 cells, 48 hours

## Nc1ccc(-c2cccs2)cc1NC(=O)c1ccc2c(c1)cc(C1CC1)n2CCN1CCOCC1 [ACY-1035]
  RFU LOC101060620 /// MAPK8IP1 (11723275_at): 10.15 RFU
